# Experimental data reported in paper PMC4729137, “Functional analysis of androgen receptor mutations that confer anti-androgen resistance identified in circulating cell-free DNA from prostate cancer patients” (Genome Biology, 2016).
# Positions count from the first letter of the chain named.
# Key:
# H875Y-AR = molecular target: T1, H875Y-AR (Homo sapiens, UniProt P10275, H875Y); assay type: cell-based; conditions: AR mutant H875Y; transfected PC3 cells; 0.1 nM R1881; drug 0 to 50 μM
# T1 sequence (P10275 1-920 H875Y): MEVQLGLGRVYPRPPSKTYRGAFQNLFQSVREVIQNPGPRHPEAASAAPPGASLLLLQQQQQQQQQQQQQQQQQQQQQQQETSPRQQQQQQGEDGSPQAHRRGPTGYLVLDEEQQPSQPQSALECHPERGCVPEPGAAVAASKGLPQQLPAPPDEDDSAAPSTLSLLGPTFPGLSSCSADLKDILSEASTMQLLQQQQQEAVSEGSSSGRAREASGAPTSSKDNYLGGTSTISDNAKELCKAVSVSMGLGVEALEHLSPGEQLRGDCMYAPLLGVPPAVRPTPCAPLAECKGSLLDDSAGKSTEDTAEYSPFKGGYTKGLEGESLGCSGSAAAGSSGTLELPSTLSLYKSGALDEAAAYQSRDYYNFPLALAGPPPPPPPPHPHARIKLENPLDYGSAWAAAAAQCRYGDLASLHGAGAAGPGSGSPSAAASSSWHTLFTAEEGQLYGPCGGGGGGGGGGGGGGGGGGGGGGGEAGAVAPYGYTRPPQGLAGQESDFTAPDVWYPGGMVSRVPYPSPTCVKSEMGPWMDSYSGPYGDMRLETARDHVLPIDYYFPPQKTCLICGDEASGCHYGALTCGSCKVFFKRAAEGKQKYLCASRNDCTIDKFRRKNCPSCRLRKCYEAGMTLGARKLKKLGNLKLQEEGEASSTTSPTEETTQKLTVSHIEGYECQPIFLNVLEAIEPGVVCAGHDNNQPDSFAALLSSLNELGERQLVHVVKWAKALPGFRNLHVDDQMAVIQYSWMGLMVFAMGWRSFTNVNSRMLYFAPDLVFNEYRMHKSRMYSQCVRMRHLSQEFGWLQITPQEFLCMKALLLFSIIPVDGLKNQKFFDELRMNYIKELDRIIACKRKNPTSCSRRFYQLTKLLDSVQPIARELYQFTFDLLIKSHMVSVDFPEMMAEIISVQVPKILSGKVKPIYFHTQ
# T878A-AR = molecular target: T2, T878A-AR (Homo sapiens, UniProt P10275, T878A); assay: cell-based
# T2 sequence (P10275 1-920 T878A): T1 sequence (P10275 1-920 H875Y) with Y875H, T878A
Agonist response to treatment (H875Y-AR),Structure (SMILES),EC50 (T878A-AR)
Yes,"CC(C)(O)C(=O)Nc1ccc([N+](=O)[O-])c(C(F)(F)F)c1 [Hydroxyflutamide, hydroxyflutamide]",
,C[C@]12CCC(=O)C=C1CC[C@@H]1[C@@H]2[C@@H](O)C[C@@]2(C)[C@H]1CC[C@]2(O)C(=O)CO [hydrocortisone],> 0.5 µM
